Source: patent publication US9409905B2, “Antibacterial compounds and methods for use” (PTC THERAPEUTICS, INC., priority 2011, dated 2016)
Converted amounts (≈) assume the structure as drawn.

What was measured:
E. coli 25922 = test: Antibacterial activity, microbroth dilution MIC (Table 1); type: cell-based, Escherichia coli; settings: Escherichia coli; microbroth dilution; control Gram-negative E. coli 25922 strain; read-out: MIC, 25922
Method in brief: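 Using broth microdilution, MIC endpoints (μg/mL) mark where visible growth no longer appears; the panel spans sensitive and control Gram-negative strains plus a Gram-positive strain.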

[1] = tested on: Pseudomonas aeruginosa (P. aeruginosa) 27853; test: Antibacterial activity, MIC (Table 5); type: cell-based; settings: P. aeruginosa 27853, read-out: MIC, 27853
Method in brief: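 Compounds are serially diluted in broth and inoculated with the organism. Growth is then inspected macroscopically, and the lowest concentration showing none is taken as the MIC (μg/mL).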

K. pneumoniae MXX1232 = test: Antibacterial activity, MIC, resistant strain (Table 4); type: cell-based; settings: Klebsiella pneumoniae, MXX1232; resistant K. pneumoniae MMX1232, multi-drug resistant clinical isolate; read-out: MIC, MMX1232
Method in brief: (§1)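 Values are minimum inhibitory concentrations in μg/mL from broth microdilution, meaning no macroscopically visible growth at that concentration. Resistant MXX isolates are multi-drug resistant clinical strains.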

A. baumannii MXX2240 = test: as above; type: cell-based; settings: Acinetobacter baumannii, MXX2240; resistant A. baumannii MMX2240, multi-drug resistant clinical isolate; read-out: MIC, MMX2240
Method in brief: as §1

[2] = tested on: Klebsiella pneumoniae (K. pneumoniae) 35657; test: Antibacterial activity, MIC (Table 4); type: cell-based; settings: K. pneumoniae 35657, read-out: MIC, 35657
Method in brief: as §1

[3] = tested on: Acinetobacter baumannii (A. baumannii) BAA747; test: Antibacterial activity, MIC (Table 4); type: cell-based; settings: A. baumannii BAA747, read-out: MIC, BAA747
Method in brief: as §1

[4] = tested on: Neisseria meningitidis (N. meningitidis) 13090; test: Antibacterial activity, MIC (Table 8); type: cell-based
Method in brief: (§2)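 Read-out: absence of macroscopically visible growth. The lowest inhibiting concentration from the microbroth dilution series is reported as MIC in μg/mL.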

E. coli ELZ4000 = test: Antibacterial activity, MIC, multi-drug resistant clinical isolate (Table 3); type: cell-based; settings: Escherichia coli, ELZ4000, read-out: MIC ELZ4000
Method in brief: (§3)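 Microbroth dilution. Endpoint: absence of macroscopically visible growth. Value = MIC, μg/mL.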

E. coli ELZ4251 = test: as above; type: cell-based; settings: Escherichia coli
Method in brief: as §3

[5] = tested on: Moraxella catarrhalis (M. catarrhalis) 25238; test: Antibacterial activity, MIC (Table 7); type: cell-based
Method in brief: as §2

[6] = tested on: Haemophilus influenzae (H. influenzae) 49247; test: Antibacterial activity, MIC (Table 6); type: cell-based
Method in brief: as §2

[7] = tested on: Staphylococcus aureus (S. aureus) 29213; test: Antibacterial activity, microbroth dilution MIC (Table 1); type: cell-based; settings: microbroth dilution, Gram-positive S. aureus 29213, read-out: MIC, 29213
Method in brief: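 Values are MICs (μg/mL): the smallest drug amount at which macroscopically visible bacterial growth is absent under assay conditions, from a microdilution method in broth.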

[8] = tested on: Escherichia coli (E. coli) BAS849; test: as above; type: cell-based; settings: microbroth dilution, super sensitive Gram-negative E. coli BAS849, read-out: MIC, BAS849
Method in brief: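 In a microbroth dilution test, the minimum inhibitory concentration was defined as the lowest compound level preventing growth seen by eye, and was given in μg/mL.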

E. coli LZ3111 = test: Antibacterial activity, MIC, quinolone resistant strain (Table 2); type: cell-based; settings: Escherichia coli, LZ3111, read-out: MIC LZ3111
Method in brief: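 Strain carries mutations conferring high-level quinolone resistance; tested by microbroth dilution, MIC recorded in μg/mL as lowest concentration preventing visible growth.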

SMILES	MIC (E. coli 25922) [µg/mL]	MIC [1] [µg/mL]	MIC (K. pneumoniae MXX1232) [µg/mL]	MIC (A. baumannii MXX2240) [µg/mL]	MIC [2] [µg/mL]	MIC [3] [µg/mL]	MIC [4] [µg/mL]	MIC (E. coli ELZ4000) [µg/mL]	MIC (E. coli ELZ4251) [µg/mL]	MIC [5] [µg/mL]	MIC [6] [µg/mL]	MIC [7] [µg/mL]	MIC [8] [µg/mL]	MIC (E. coli LZ3111) [µg/mL]
CCc1c(-c2ccc3c(c2)cc(CNCC2CCCC2)n3C)[nH]c(=O)c(C(=O)O)c1O.Cl [Cpd 236, 6-(2-((cyclopentylmethylamino)methyl)-1-methyl-1H-indol-5-yl)-5-ethyl-4-hydroxy-2-oxo-1,2-dihydropyridine-3-carboxylic acid hydrochloride]	< 1	12.5 to 150	12.5 to 150	1 to 3.5	1 to 3.5	1 to 3.5	< 1	12.5 to 150	12.5 to 150	< 1	1 to 3.5	3.5 to 12.5	< 1	3.5 to 12.5
CCc1c(-c2ccc3c(c2)cc(CN2C[C@H]4C[C@@H](N(C)C)C[C@H]4C2)n3C)[nH]c(=O)c(C(=O)O)c1O [Cpd 285, 6-(2-(((3aR,5r,6aS)-5-(dimethylamino)hexahydrocyclopenta[c]pyrrol-2(1H)-yl)methyl)-1-methyl-1H-indol-5-yl)-5-ethyl-4-hydroxy-2-oxo-1,2-dihydropyridine-3-carboxylic acid]	1 to 3.5 (≈ 2.09 to 7.31 µM)	12.5 to 150 (≈ 26.1 to 313 µM)	12.5 to 150 (≈ 26.1 to 313 µM)	12.5 to 150 (≈ 26.1 to 313 µM)	1 to 3.5 (≈ 2.09 to 7.31 µM)	3.5 to 12.5 (≈ 7.31 to 26.1 µM)	< 1	12.5 to 150 (≈ 26.1 to 313 µM)	3.5 to 12.5 (≈ 7.31 to 26.1 µM)	1 to 3.5 (≈ 2.09 to 7.31 µM)	1 to 3.5 (≈ 2.09 to 7.31 µM)	12.5 to 150 (≈ 26.1 to 313 µM)	< 1	1 to 3.5 (≈ 2.09 to 7.31 µM)
